Common to all, as to type: biochemical, Lactobacillus delbrückii ssp. lactis
Series [1] deals with T1, PepN (Lactobacillus delbrueckii subsp. lactis, UniProt P37896).
T1 construct: made in house; host or cells: E. coli CM89 (pepN-deficient) harbouring plasmid pUK13
T1 sequence (P37896 1-843): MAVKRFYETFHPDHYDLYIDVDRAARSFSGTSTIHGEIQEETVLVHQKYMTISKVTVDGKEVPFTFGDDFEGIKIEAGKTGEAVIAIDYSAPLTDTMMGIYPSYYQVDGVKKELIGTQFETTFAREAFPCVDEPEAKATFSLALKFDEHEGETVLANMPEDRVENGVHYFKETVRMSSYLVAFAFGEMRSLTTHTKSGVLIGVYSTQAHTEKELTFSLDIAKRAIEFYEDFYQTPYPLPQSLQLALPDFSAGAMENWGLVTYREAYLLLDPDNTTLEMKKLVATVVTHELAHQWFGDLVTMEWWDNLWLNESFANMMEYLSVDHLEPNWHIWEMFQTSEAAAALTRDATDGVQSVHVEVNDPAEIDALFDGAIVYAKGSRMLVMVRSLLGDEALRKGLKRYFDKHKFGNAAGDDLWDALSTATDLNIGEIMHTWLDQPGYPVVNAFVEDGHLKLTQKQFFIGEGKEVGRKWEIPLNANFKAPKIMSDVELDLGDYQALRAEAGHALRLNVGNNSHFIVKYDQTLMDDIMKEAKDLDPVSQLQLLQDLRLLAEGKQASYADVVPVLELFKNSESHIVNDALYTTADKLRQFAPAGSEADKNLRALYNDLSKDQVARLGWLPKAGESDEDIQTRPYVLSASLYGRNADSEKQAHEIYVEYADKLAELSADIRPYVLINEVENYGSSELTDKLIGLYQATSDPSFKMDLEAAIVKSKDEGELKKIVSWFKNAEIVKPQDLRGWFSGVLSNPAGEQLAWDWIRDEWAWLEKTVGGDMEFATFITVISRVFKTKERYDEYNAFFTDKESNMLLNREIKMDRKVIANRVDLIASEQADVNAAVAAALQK
The experiment in a line: Substrate specificity of purified PepN against p-nitroanilide substrates. As to conditions: p-nitroanilide substrates 1 mM, 10 min at 37°C, Tris-HCl 10 mM pH 8.0. On the procedure:
(§1) For characterization of the enzyme the p-nitroanilide subtrates (Bachem) were dissolved in water and added to the reaction mixture [Tris-HCl 10 mM, pH 8.0, and varying amounts of purified enzyme (1-200 ng)] to a concentration of 1 mM in a volume of 250 µl. Release of p-nitroaniline was measured after a 10 min incubation at 37°C at […] in a LKB Ultrospec plus spectrophotometer. For rapid screening of active fractions during purification of the enzyme, samples were prepared in micro titer plates and measured in a BIORAD model 2550 EIA reader.

Series [2] deals with T1, PepN. The experiment in a line: biochemical. Conditions: for activity at 1000 µM: read-out: relative activity. How it is done: The percentages of relative activity indicated above, correspond to residual activities after addition of the inhibitor as compared with the control without inhibitor. The conditions and methods for determination are taken from "Proteolytic enzymes, a practical approach, Beynon R.J. and Bond J.S., Oxford University Press 1989." (Chapter 4, Determination of protease mechanism, Ben M. Dunn).
as §1
To study the mechanism of enzyme action, the inhibitors phenylmethansulphonyl fluoride (PMSF) at a concentration of 1 mM, pepstatin A at 1 µg/ml, L-trans-epoxysuccinyl-leucylamide(4-guanidino)-butane (E-64) at 0.1 mM, and 1,10-phenanthroline or EDTA at 1 mM were added to the enzyme and incubated for 30 min at 37°C. The substrate lys-p-nitroanilide was added and activity was measured spectrophotometrically by the release of p-nitroaniline.

Substrate in series [3]: NCCCC[C@H](N)C(=O)Nc1ccc([N+](=O)[O-])cc1
The experiment in a line: Substrate specificity of purified PepN against p-nitroanilide substrates. As to conditions: other: Lineweaver-Burk plot; pH 8.0; 37.0 °C. How it is done: as §1

Where [4] appears, read: PMSF 1 mM, pepstatin A 1 µg/ml, E-64 0.1 mM, 1,10-phenanthroline or EDTA 1 mM, 30 min at 37°C, substrate lys-p-nitroanilide.

Like-named read-outs stand apart in the source and are kept apart here. Non-standard residues stand in square brackets, D forms with d. Residues, ends and D or L forms follow the SMILES beside them. *: point of attachment. Sta = CC(C)C[C@H](N)[C@@H](O)CC(=O)O; pNA = O=[N+]([O-])c1ccc(N*)cc1; Isovaleryl = CC(C)CC(=O)*

`C[C@H](N)C(=O)N1CCC[C@H]1C(=O)Nc1ccc([N+](=O)[O-])cc1` [Ala-Pro-pNA] (H-Ala-Pro-pNA): at PepN [1], the “relative activity (%)” value amounted to 0%.
As for `C[C@H](N)C(=O)Nc1ccc([N+](=O)[O-])cc1` [Ala-pNA], the “relative activity (%)” value at PepN [1] is listed as 12%.
As for `CC(C)CC(NC(=O)C1OC1C(=O)O)C(=O)NCCCCN=C(N)N` [E-64, L-trans-epoxysuccinyl-leucylamide(4-guanidino)-butane], the “effect on enzyme activity” value on PepN [2] (setting [4]) is listed as “no effect”.
Consider `O=C(O)CN(CCN(CC(=O)O)CC(=O)O)CC(=O)O` [EDTA], for which, on PepN [2], the “effect on enzyme activity” value is “full inhibition” and the activity at 1000 µM came out at 3%.
As to `NCC(=O)Nc1ccc([N+](=O)[O-])cc1` [Gly-pNA], the “relative activity (%)” value on PepN [1] is 1%.
Regarding `CC(C)C[C@H](N)C(=O)Nc1ccc([N+](=O)[O-])cc1` [Leu-pNA], at PepN [1], the “relative activity (%)” value amounted to 19%.
On to `NCCCC[C@H](N)C(=O)Nc1ccc([N+](=O)[O-])cc1` [Lys-pNA, lys-p-nitroanilide], for which the “relative activity (%)” value at PepN [1] is given as 100%.
`O=S(=O)(F)Cc1ccccc1` [PMSF, phenylmethansulphonyl fluoride]: the “effect on enzyme activity” value at PepN [2] (setting [4]) was “no effect”.
On to `CC(C)CC(=O)N[C@H](C(=O)N[C@H](C(=O)N[C@@H](CC(C)C)[C@@H](O)CC(=O)N[C@@H](C)C(=O)N[C@@H](CC(C)C)[C@@H](O)CC(=O)O)C(C)C)C(C)C` [Pepstatin A, pepstatin A] (Isovaleryl-VV[Sta]A[Sta]-OH), for which the “effect on enzyme activity” value on PepN [2] (setting [4]) was “no effect”.
In the case of `N[C@@H](Cc1ccccc1)C(=O)Nc1ccc([N+](=O)[O-])cc1` [Phe-pNA], the “relative activity (%)” value at PepN [1] was 8%.
On to `c1cnc2c(c1)ccc1cccnc12` [Phenanthroline, 1,10-phenanthroline], for which the “effect on enzyme activity” value at PepN [2] (setting [4]) was “full inhibition”. In addition, the activity at 1000 µM on PepN [2] (end concentration 1 mM, residual activity after addition of the inhibitor compared with control without inhibitor) amounted to 4%.
For the molecule `O=C(Nc1ccc([N+](=O)[O-])cc1)[C@@H]1CCCN1` [Pro-pNA], the “relative activity (%)” value at PepN [1] was 2%.
On to `N[C@@H](Cc1ccc(O)cc1)C(=O)Nc1ccc([N+](=O)[O-])cc1` [Tyr-pNA], for which, on PepN [1], the “relative activity (%)” value came to 2%.

B1: PepN (Lactobacillus delbrueckii subsp. lactis) (protein)
chain: T1 sequence (P37896 1-843)
notes: made in house; host or cells: E. coli CM89 (pepN-deficient) harbouring plasmid pUK13
On to B1, for which the Michaelis-Menten constant (Km) in series [3] is on record as 70 µM.

What is called Km is the concentration of substrate that gives half-maximal velocity.

Source of the values: patent publication EP0633316A1, “Lys-aminopeptidase PepN from lactobacillus delbruckii ssp. Lactis, nucleic acids coding for it, and its use in fermentation processes” (EUROPEAN ECONOMIC COMMUNITY E.E.C., priority 1993, dated 1995).
